Measurements published in PubChem BioAssay AID2060621 (Molecular Pharmacology Branch, DTP, NCI, 2025).

Tested on: 324938-238-R-J1-PDC complex spheroids viability
Test: Anticancer human tumor 324938-238-R-J1-PDC patient-derived bladder carcinoma cell line growth inhibition [CLK]
Conditions: for IC50: curve of first compound; for viability, T/C: stronger effect = lower value
In short: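 Multi-cell-type spheroids combined patient-derived tumor cells with HUVEC endothelial cells and human mesenchymal stem cells. Paired agents were dosed in half-log steps down from about clinical Cmax, or from 10 microM where Cmax was unknown.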

[1] = second compound 0.0316 µM, first compound 0.0316 µM
[2] = second compound 0.0316 µM, first compound 0.1 µM
[3] = second compound 0.0316 µM, first compound 0.316 µM
[4] = second compound 0.0316 µM, first compound 1 µM
[5] = second compound 0.0316 µM, first compound 3.16 µM
[6] = second compound 0.0316 µM, first compound 10 µM
[7] = second compound 0.1 µM, first compound 0.0316 µM
[8] = second compound 0.1 µM, first compound 0.1 µM
[9] = second compound 0.1 µM, first compound 0.316 µM
[10] = second compound 0.1 µM, first compound 1 µM
[11] = second compound 0.1 µM, first compound 3.16 µM
[12] = second compound 0.1 µM, first compound 10 µM
[13] = second compound 0.316 µM, first compound 0.0316 µM
[14] = second compound 0.316 µM, first compound 0.1 µM
[15] = second compound 0.316 µM, first compound 0.316 µM
[16] = second compound 0.316 µM, first compound 1 µM
[17] = second compound 0.316 µM, first compound 3.16 µM
[18] = second compound 0.316 µM, first compound 10 µM
[19] = second compound 1 µM, first compound 0.0316 µM
[20] = second compound 1 µM, first compound 0.1 µM
[21] = second compound 1 µM, first compound 0.316 µM
[22] = second compound 1 µM, first compound 1 µM
[23] = second compound 1 µM, first compound 3.16 µM
[24] = second compound 1 µM, first compound 10 µM
[25] = second compound 3.16 µM, first compound 0.0316 µM
[26] = second compound 3.16 µM, first compound 0.1 µM
[27] = second compound 3.16 µM, first compound 0.316 µM
[28] = second compound 3.16 µM, first compound 1 µM
[29] = second compound 3.16 µM, first compound 3.16 µM
[30] = second compound 3.16 µM, first compound 10 µM
[31] = second compound 10 µM, first compound 0.0316 µM
[32] = second compound 10 µM, first compound 0.1 µM
[33] = second compound 10 µM, first compound 0.316 µM
[34] = second compound 10 µM, first compound 1 µM
[35] = second compound 10 µM, first compound 3.16 µM
[36] = second compound 10 µM, first compound 10 µM
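Further: viability read after seven days of drug exposure.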
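Wherever viability, T/C is given: 100% = DMSO vehicle control wells.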

With `COc1ccc([C@@H](O)c2cc(-c3ncnc4cc(N5CCOCC5)ccc34)c(F)cc2Cl)nn1` + CNC(=O)c1ccc(Nc2nc(OC3CCCC3)c3c(-c4ccc5nc(C)oc5c4)c[nH]c3n2)c(OC)c1 as the molecule, how does the IC50 (second compound 0.0316 µM) read?
The IC50 was 3770 nM.

What about the IC50 (second compound 0.1 µM) of the same molecule?
Its IC50 is under 31.6 nM.

What about the IC50 (second compound 0.316 µM) of the same molecule?
Its IC50 is under 31.6 nM.

What about the IC50 (second compound 1 µM) of the same molecule?
Its IC50 is under 31.6 nM.

And the IC50 (second compound 3.16 µM)?
Its IC50 is under 31.6 nM.

What about the IC50 (second compound 10 µM) of the same molecule?
The IC50 was under 31.6 nM.

And the viability, T/C [1]?
Its viability, T/C is 86.8%.

What about the viability, T/C [2] of the same molecule?
Its viability, T/C is 76.4%.

What about the viability, T/C [3] of the same molecule?
Its viability, T/C is 70.3%.

And the viability, T/C [4]?
The viability, T/C was 63.5%.

What about the viability, T/C [5] of the same molecule?
Its viability, T/C is 56.5%.

And the viability, T/C [6]?
The viability, T/C was 35.9%.

And the viability, T/C [7]?
Its viability, T/C is 27.6%.

And the viability, T/C [8]?
Its viability, T/C is 26.3%.

And the viability, T/C [9]?
The viability, T/C was 22.9%.

What about the viability, T/C [10] of the same molecule?
The viability, T/C was 28%.

And the viability, T/C [11]?
Its viability, T/C is 29%.

And the viability, T/C [12]?
The viability, T/C was 22.7%.

What about the viability, T/C [13] of the same molecule?
The viability, T/C was 18.5%.

What about the viability, T/C [14] of the same molecule?
The viability, T/C was 20.5%.

What about the viability, T/C [15] of the same molecule?
Its viability, T/C is 17.9%.

And the viability, T/C [16]?
Its viability, T/C is 16.5%.

What about the viability, T/C [17] of the same molecule?
The viability, T/C was 14.6%.

What about the viability, T/C [18] of the same molecule?
The viability, T/C was 16.1%.

What about the viability, T/C [19] of the same molecule?
Its viability, T/C is 16%.

What about the viability, T/C [20] of the same molecule?
The viability, T/C was 14.5%.

What about the viability, T/C [21] of the same molecule?
The viability, T/C was 16%.

And the viability, T/C [22]?
The viability, T/C was 14.8%.

And the viability, T/C [23]?
Its viability, T/C is 12.9%.

What about the viability, T/C [24] of the same molecule?
The viability, T/C was 11.2%.

What about the viability, T/C [25] of the same molecule?
Its viability, T/C is 18.1%.

What about the viability, T/C [26] of the same molecule?
The viability, T/C was 14.2%.

What about the viability, T/C [27] of the same molecule?
The viability, T/C was 16.2%.

What about the viability, T/C [28] of the same molecule?
The viability, T/C was 14.7%.

And the viability, T/C [29]?
The viability, T/C was 14.9%.

And the viability, T/C [30]?
Its viability, T/C is 9.35%.

And the viability, T/C [31]?
Its viability, T/C is 15.6%.

What about the viability, T/C [32] of the same molecule?
Its viability, T/C is 16.7%.

What about the viability, T/C [33] of the same molecule?
The viability, T/C was 16.9%.

And the viability, T/C [34]?
The viability, T/C was 16.8%.

And the viability, T/C [35]?
The viability, T/C was 11.1%.

What about the viability, T/C [36] of the same molecule?
The viability, T/C was 12.1%.

What does the source list for `COc1cccc2c1C(=O)c1c(O)c3c(c(O)c1C2=O)CC(O)(C(=O)CO)CC3OC1CC(N)C(O)C(C)O1` (centres undefined) + CNC(=O)c1ccc(Nc2nc(OC3CCCC3)c3c(-c4ccc5nc(C)oc5c4)c[nH]c3n2)c(OC)c1?
IC50 (second compound 0.0316 µM): < 31.6 nM; IC50 (second compound 0.1 µM): < 31.6 nM; IC50 (second compound 0.316 µM): < 31.6 nM; IC50 (second compound 1 µM): < 31.6 nM; IC50 (second compound 3.16 µM): < 31.6 nM; IC50 (second compound 10 µM): < 31.6 nM; viability, T/C [1]: 19.3%; viability, T/C [2]: 16.8%; viability, T/C [3]: 9.74%; viability, T/C [4]: 0.7%; viability, T/C [5]: 0.12%; viability, T/C [6]: 0.14%; viability, T/C [7]: 18.5%; viability, T/C [8]: 20.2%; viability, T/C [9]: 9.65%; viability, T/C [10]: 0.48%; viability, T/C [11]: 0.11%; viability, T/C [12]: 0.15%; viability, T/C [13]: 19.1%; viability, T/C [14]: 16.3%; viability, T/C [15]: 9.12%; viability, T/C [16]: 0.49%; viability, T/C [17]: 0.16%; viability, T/C [18]: 0.13%; viability, T/C [19]: 17.2%; viability, T/C [20]: 11.7%; viability, T/C [21]: 7.13%; viability, T/C [22]: 0.58%; viability, T/C [23]: 0.14%; viability, T/C [24]: 0.15%; viability, T/C [25]: 20.2%; viability, T/C [26]: 12.2%; viability, T/C [27]: 6.62%; viability, T/C [28]: 0.36%; viability, T/C [29]: 0.14%; viability, T/C [30]: 0.16%; viability, T/C [31]: 18.3%; viability, T/C [32]: 13.4%; viability, T/C [33]: 5.95%; viability, T/C [34]: 0.31%; viability, T/C [35]: 0.19%; viability, T/C [36]: 0.23%
